Source: patent US6737383B1, “Herbicidal oxadiazolidines” (priority 1999, dated 2004)

Columns and labels:
bamyardgrass = assay: Test B flood test barnyardgrass; assay type: in vivo, Echinochloa crus-galli
How it was run: (§1)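 Flood test on plants grown to the 2-leaf stage; treated plants kept in greenhouse twelve to sixteen days, then visually rated against controls on a 0 (no effect) to 10 (complete control) scale.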

bedstraw = assay: Test B pre/postemergence bedstraw; assay type: in vivo, Galium aparine
How it was run: (§2)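 Response is a visual 0-to-10 score relative to untreated plants, where 0 means no effect and 10 means complete control, taken twelve to sixteen days after application. Treatments went onto soil at planting and onto foliage of 1- to 4-leaf plants, using a surfactant-containing non-phytotoxic solvent.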

wheat = assay: Test B pre/postemergence wheat; assay type: in vivo, Triticum aestivum
How it was run: as §2

rice = assay: Test B flood test rice; assay type: in vivo, Oryza sativa
How it was run: as §1

blackgrass = assay: Test B pre/postemergence blackgrass; assay type: in vivo, Alopecurus myosuroides
How it was run: as §2

crabgrass = assay: Test B pre/postemergence crabgrass; assay type: in vivo, Digitaria sanguinalis
How it was run: as §2

velvetleaf = assay: Test B pre/postemergence velvetleaf; assay type: in vivo, Abutilon theophrasti
How it was run: as §2

surinam grass = assay: Test B pre/postemergence surinam grass; assay type: in vivo, Brachiaria decumbens
How it was run: as §2

corn = assay: Test B pre/postemergence corn; assay type: in vivo, Zea mays
How it was run: as §2

purple nutsedge = assay: Test B pre/postemergence purple nutsedge; assay type: in vivo, Cyperus rotundus
How it was run: as §2

smallflower flatsedge = assay: Test B flood test smallflower flatsedge; assay type: in vivo, Cyperus difformis
How it was run: as §1

soybean = assay: Test B pre/postemergence soybean; assay type: in vivo, Glycine max
How it was run: as §2

sugar beet = assay: Test B pre/postemergence sugar beet; assay type: in vivo, Beta vulgaris
How it was run: as §2

wild oat = assay: Test B pre/postemergence wild oat; assay type: in vivo, Avena fatua
How it was run: as §2

cocklebur = assay: Test B pre/postemergence cocklebur; assay type: in vivo, Xanthium strumarium
How it was run: as §2

duck salad = assay: Test B flood test duck salad; assay type: in vivo, Heteranthera limosa
How it was run: as §1

[1] = Rate 62 g/ha, headed Pre-emergence (flood test species), scale 0 to 10 (0 no effect, 10 complete control)
[2] = Rate 125 g/ha, Pre-emergence, flood test species, scale 0 to 10 where 0 is no effect and 10 is complete control
[3] = Rate 250 g/ha, Pre-emergence, flood-test species, scale 0 to 10, 0 is no effect, 10 is complete control
[4] = Rate 500 g/ha, headed Pre-emergence (flood test species), scale 0 to 10 (0 no effect, 10 complete control)
[5] = Preemergence, Rate 62 g/ha, scale of 0 to 10 where 0 is no effect and 10 is complete control
[6] = Preemergence, Rate 125 g/ha, 0 is no effect, 10 is complete control
[7] = Preemergence, Rate 250 g/ha, scale 0 to 10, 0 is no effect, 10 is complete control
[8] = Preemergence, Rate 500 g/ha, scale of 0 to 10 where 0 is no effect and 10 is complete control
[9] = Rate 62 g/ha, Postemergence, scale of 0 to 10 where 0 is no effect and 10 is complete control
[10] = Rate 125 g/ha, Postemergence, scale 0 to 10
[11] = Rate 500 g/ha, Postemergence, scale 0 to 10

Cc1nc(C)c(-n2c(=O)on(C(=O)N(c3ccc(F)cc3)C(C)C)c2=O)s1 [Compound 198]
1: Soybean plant response rating (soybean; [11])
0: Barnyardgrass plant response rating (bamyardgrass; [1]) | Barnyardgrass plant response rating (bamyardgrass; [2]) | Barnyardgrass plant response rating (bamyardgrass; [3]) | Plant response rating, Barnyardgrass (bamyardgrass; [4]) | Bedstraw plant response rating (bedstraw; [5]) | Bedstraw plant response rating (0 to 10 scale) (bedstraw; [6]) | Bedstraw plant response rating (bedstraw; [7]) | Plant response rating, Bedstraw (bedstraw; [8]) | Bedstraw plant response rating (bedstraw; [9]) | Bedstraw plant response rating (bedstraw; [10]) | Plant response rating (0 to 10; 0 is no effect, 10 is complete control), Bedstraw (bedstraw; Rate 250 g/ha, Postemergence) | Wheat plant response rating (wheat; [5]) | Wheat plant response rating (wheat; [7]) | Plant response rating, Wheat (wheat; [8]) | Wheat plant response rating (wheat; [9]) | Wheat plant response rating (wheat; [10]) | Plant response rating (0 to 10; 0 is no effect, 10 is complete control), Wheat (wheat; Rate 250 g/ha, Postemergence) | Rice plant response rating (rice; [1]) | Rice plant response rating (rice; [2]) | Rice plant response rating (rice; [3]) | Plant response rating, Rice (rice; [4]) | Blackgrass plant response rating (blackgrass; [5]) | Blackgrass plant response rating (0 to 10 scale) (blackgrass; [6]) | Blackgrass plant response rating (blackgrass; [7]) | Plant response rating, Blackgrass (blackgrass; [8]) | Blackgrass plant response rating (blackgrass; [9]) | Blackgrass plant response rating (blackgrass; [10]) | Plant response rating (0 to 10; 0 is no effect, 10 is complete control), Blackgrass (blackgrass; Rate 250 g/ha, Postemergence) | Blackgrass plant response rating (blackgrass; [11]) | Crabgrass plant response rating (crabgrass; [5]) | Crabgrass plant response rating (0 to 10 scale) (crabgrass; [6]) | Crabgrass plant response rating (crabgrass; [7]) | Plant response rating, Crabgrass (crabgrass; [8]) | Crabgrass plant response rating (crabgrass; [9]) | Crabgrass plant response rating (crabgrass; [10]) | Plant response rating (0 to 10; 0 is no effect, 10 is complete control), Crabgrass (crabgrass; Rate 250 g/ha, Postemergence) | Crabgrass plant response rating (crabgrass; [11]) | Velvetleaf plant response rating (velvetleaf; [5]) | Velvetleaf plant response rating (velvetleaf; [7]) | Plant response rating, Velvetleaf (velvetleaf; [8]) | Velvetleaf plant response rating (velvetleaf; [9]) | Velvetleaf plant response rating (velvetleaf; [10]) | Plant response rating (0 to 10; 0 is no effect, 10 is complete control), Velvetleaf (velvetleaf; Rate 250 g/ha, Postemergence) | B. signalgrass plant response rating (surinam grass; [5]) | B. signalgrass plant response rating (0 to 10 scale) (surinam grass; [6]) | B. signalgrass plant response rating (surinam grass; [7]) | Plant response rating, B. signalgrass (surinam grass; [8]) | B. signalgrass plant response rating (surinam grass; [9]) | B. signalgrass plant response rating (surinam grass; Rate 125 g/ha, Postemergence, scale 0 (no effect) to 10 (complete control)) | Plant response rating, B. signalgrass (surinam grass; Rate 250 g/ha, Postemergence, scale 0 to 10, 0 is no effect, 10 is complete control) | B. signalgrass plant response rating (surinam grass; Rate 500 g/ha, Postemergence, scale 0 to 10, 0 no effect, 10 complete control) | Corn plant response rating (corn; [5]) | Corn plant response rating (0 to 10 scale) (corn; [6]) | Corn plant response rating (corn; [7]) | Plant response rating, Corn (corn; [8]) | Corn plant response rating (corn; [9]) | Corn plant response rating (corn; [10]) | Plant response rating (0 to 10; 0 is no effect, 10 is complete control), Corn (corn; Rate 250 g/ha, Postemergence) | Corn plant response rating (corn; [11]) | Nutsedge plant response rating (purple nutsedge; [5]) | Nutsedge plant response rating (0 to 10 scale) (purple nutsedge; [6]) | Nutsedge plant response rating (purple nutsedge; [7]) | Plant response rating, Nutsedge (purple nutsedge; [8]) | Nutsedge plant response rating (purple nutsedge; [9]) | Nutsedge plant response rating (purple nutsedge; [10]) | Plant response rating (0 to 10; 0 is no effect, 10 is complete control), Nutsedge (purple nutsedge; Rate 250 g/ha, Postemergence) | Nutsedge plant response rating (purple nutsedge; [11]) | S. Flatsedge plant response rating (smallflower flatsedge; [1]) | S. Flatsedge plant response rating (smallflower flatsedge; [2]) | S. Flatsedge plant response rating (smallflower flatsedge; [3]) | S. Flatsedge plant response rating (smallflower flatsedge; Rate 500 g/ha, Pre-emergence, flood test species, scale 0 to 10 (0 no effect, 10 complete control)) | Soybean plant response rating (soybean; [5]) | Soybean plant response rating (0 to 10 scale) (soybean; [6]) | Soybean plant response rating (soybean; [7]) | Plant response rating, Soybean (soybean; [8]) | Soybean plant response rating (soybean; [9]) | Soybean plant response rating (soybean; [10]) | Plant response rating (0 to 10; 0 is no effect, 10 is complete control), Soybean (soybean; Rate 250 g/ha, Postemergence) | Sugarbeets plant response rating (sugar beet; [5]) | Sugarbeets plant response rating (0 to 10 scale) (sugar beet; [6]) | Sugarbeets plant response rating (sugar beet; [7]) | Plant response rating, Sugarbeets (sugar beet; [8]) | Sugarbeets plant response rating (sugar beet; [9]) | Sugarbeets plant response rating (sugar beet; [10]) | Plant response rating (0 to 10; 0 is no effect, 10 is complete control), Sugarbeets (sugar beet; Rate 250 g/ha, Postemergence) | Sugarbeets plant response rating (sugar beet; [11]) | Wild oats plant response rating (wild oat; [5]) | Wild oats plant response rating (wild oat; [7]) | Plant response rating, Wild oats (wild oat; [8]) | Wild oats plant response rating (wild oat; [9]) | Wild oats plant response rating (wild oat; [10]) | Plant response rating (0 to 10; 0 is no effect, 10 is complete control), Wild oats (wild oat; Rate 250 g/ha, Postemergence) | Cocklebur plant response rating (cocklebur; [5]) | Cocklebur plant response rating (0 to 10 scale) (cocklebur; [6]) | Cocklebur plant response rating (cocklebur; [7]) | Plant response rating, Cocklebur (cocklebur; [8]) | Cocklebur plant response rating (cocklebur; [9]) | Cocklebur plant response rating (cocklebur; [10]) | Plant response rating (0 to 10; 0 is no effect, 10 is complete control), Cocklebur (cocklebur; Rate 250 g/ha, Postemergence) | Cocklebur plant response rating (cocklebur; [11]) | Ducksalad plant response rating (duck salad; [1]) | Ducksalad plant response rating (duck salad; [2]) | Ducksalad plant response rating (duck salad; [3]) | Plant response rating, Ducksalad (duck salad; [4])
